Assay results: patent US20210345613A1, “HERBICIDAL PYRIMIDINE COMPOUNDS” (BASF SE, priority 2016, published 2021)

Tests used:
Type in all cases: in vivo
Setaria viridis = test: greenhouse herbicidal test, post-emergence treatment; conditions: post-emergence method, scale from 0 to 100, test period 2 to 4 weeks
Text: (§1) The seeds of the test plants were sown separately for each species. For the post-emergence treatment, the test plants were first grown to a height of 3 to 15 cm, depending on the plant habit, and only then treated with the active ingredients which had been suspended or emulsified in water. For this purpose, the test plants were either sown directly and grown in the same containers, or they were first grown separately as seedlings and transplanted into the test containers a few days prior to treatment. Depending on the species, the plants were kept at 10-25° C. or 20-35° C., respectively. The test period extended over 2 to 4 weeks. During this time, the plants were tended, and their response to the individual treatments was evaluated. Evaluation was carried out using a scale from 0 to 100. 100 means no emergence of the plants, or complete destruction of at least the aerial moieties, and 0 means no damage, or normal course of growth. A good herbicidal activity is given at values of at least 70 and a very good herbicidal activity is given at values of at least 85. The plants used in the greenhouse experiments were of the following species: [table]

Apera spica-venti = test: greenhouse herbicidal test, pre-emergence treatment; conditions: pre-emergence method, application rate 2000 g/ha, scale from 0 to 100, test period 2 to 4 weeks
Text: (§2) The seeds of the test plants were sown separately for each species. For the pre-emergence treatment, the active ingredients, which had been suspended or emulsified in water, were applied directly after sowing by means of finely distributing nozzles. The containers were irrigated gently to promote germination and growth and subsequently covered with transparent plastic hoods until the plants had rooted. This cover caused uniform germination of the test plants, unless this had been impaired by the active ingredients. Depending on the species, the plants were kept at 10-25° C. or 20-35° C., respectively. The test period extended over 2 to 4 weeks. During this time, the plants were tended, and their response to the individual treatments was evaluated. Evaluation was carried out using a scale from 0 to 100. 100 means no emergence of the plants, or complete destruction of at least the aerial moieties, and 0 means no damage, or normal course of growth. A good herbicidal activity is given at values of at least 70 and a very good herbicidal activity is given at values of at least 85. The plants used in the greenhouse experiments were of the following species: [table]

Echinocloa crus-galli [1] = test: greenhouse herbicidal test, post-emergence treatment; conditions: post-emergence method, scale from 0 to 100, test period 2 to 4 weeks
Text: as §1

Alopecurus myosuroides = test: as above; conditions: post-emergence method, application rate 2000 g/ha, scale from 0 to 100, test period 2 to 4 weeks
Text: as §1

Avena fatua = test: as above; conditions: post-emergence method, application rate 2000 g/ha, scale from 0 to 100, test period 2 to 4 weeks
Text: as §1

Echinocloa crus-galli [2] = test: greenhouse herbicidal test, pre-emergence treatment; conditions: pre-emergence method, scale from 0 to 100, test period 2 to 4 weeks
Text: as §2

| SMILES | herbicidal activity against APESV (Apera spica-venti) | herbicidal activity against ECHCG (Echinocloa crus-galli [1]; application rate 2000 g/ha) | herbicidal activity against ALOMY (Alopecurus myosuroides) | herbicidal activity against ECHCG (Echinocloa crus-galli [2]; application rate 2000 g/ha) | also measured |
| --- | --- | --- | --- | --- | --- |
| Brc1ccsc1-c1cnc(C2CC2)nc1-c1ccco1 [Ex.6] |  |  |  |  | herbicidal activity against SETVI (Setaria viridis; application rate 1000 g/ha): very good (a very good herbicidal activity is given at values of at least 85) |
| Brc1cccnc1-c1cnc(C2CC2)nc1-c1ccco1 [Ex.8] | very good (a very good herbicidal activity is given at values of at least 85) |  |  |  |  |
| Fc1cccnc1-c1cnc(C2CC2)nc1-c1ccco1 [Ex.9] |  | good (A good herbicidal activity is given at values of at least 70) |  |  |  |
| Brc1cccnc1-c1cnc(C2CC2)nc1-c1ccco1 [Ex.10] |  |  | good (A good herbicidal activity is given at values of at least 70) |  |  |
| Fc1cccnc1-c1cnc(C2CC2)nc1-c1ccoc1 [Ex.11] |  |  |  |  | herbicidal activity against ECHCG (Echinocloa crus-galli [1]; application rate 1000 g/ha): good (A good herbicidal activity is given at values of at least 70) |
| Cc1occc1-c1nc(C2CC2)ncc1-c1ncccc1Br [Ex.12] | very good (a very good herbicidal activity is given at values of at least 85) | good (A good herbicidal activity is given at values of at least 70) | good (A good herbicidal activity is given at values of at least 70) |  | herbicidal activity against AVEFA (Avena fatua): good (A good herbicidal activity is given at values of at least 70) |
| Cc1occc1-c1nc(C2CC2)ncc1-c1ncccc1F [Ex.13] |  | good (A good herbicidal activity is given at values of at least 70) |  |  | herbicidal activity against SETVI (Setaria viridis; application rate 2000 g/ha): good (A good herbicidal activity is given at values of at least 70) |
| Cc1nc(C2CC2)ncc1-c1cc(Br)sc1Br [Ex.15] |  |  |  |  | herbicidal activity against ECHCG (Echinocloa crus-galli [2]; application rate 500 g/ha): good (A good herbicidal activity is given at values of at least 70) |
| Cc1ccc(-c2nc(C3CC3)ncc2-c2ncccc2Br)o1 [Ex.17] | very good (a very good herbicidal activity is given at values of at least 85) |  |  | very good (a very good herbicidal activity is given at values of at least 85) | herbicidal activity against AVEFA (Avena fatua): very good (a very good herbicidal activity is given at values of at least 85) |
| Cc1ccoc1-c1nc(C2CC2)ncc1-c1ncccc1Br [Ex.18] |  | good (A good herbicidal activity is given at values of at least 70) |  |  | herbicidal activity against AVEFA (Avena fatua): very good (a very good herbicidal activity is given at values of at least 85) |
| CCOC(=O)Cc1nc(C2CC2)ncc1-c1ncccc1Cl [Ex.20] |  | very good (a very good herbicidal activity is given at values of at least 85) | very good (a very good herbicidal activity is given at values of at least 85) | very good (a very good herbicidal activity is given at values of at least 85) | herbicidal activity against AVEFA (Avena fatua): very good (a very good herbicidal activity is given at values of at least 85) |
| Clc1cccnc1-c1cnc(C2CC2)nc1/C=C/c1ccco1 [Ex.25] | very good (a very good herbicidal activity is given at values of at least 85) | very good (a very good herbicidal activity is given at values of at least 85) | very good (a very good herbicidal activity is given at values of at least 85) | very good (a very good herbicidal activity is given at values of at least 85) | herbicidal activity against SETVI (Setaria viridis; application rate 2000 g/ha): very good (a very good herbicidal activity is given at values of at least 85) |
| OC1(Cc2nc(C3CC3)ncc2-c2ncccc2Cl)CCCC1 [Ex.26] |  |  |  |  | herbicidal activity against SETVI (Setaria viridis; application rate 2000 g/ha): very good (a very good herbicidal activity is given at values of at least 85) |
| Clc1cccnc1-c1cnc(C2CC2)nc1-c1ccoc1 [Ex.27] | very good (a very good herbicidal activity is given at values of at least 85) | very good (a very good herbicidal activity is given at values of at least 85) | very good (a very good herbicidal activity is given at values of at least 85) | very good (a very good herbicidal activity is given at values of at least 85) | herbicidal activity against AVEFA (Avena fatua): very good (a very good herbicidal activity is given at values of at least 85) |
| C/C=C/c1nc(C2CC2)ncc1-c1ncccc1Cl [Ex.30] | very good (a very good herbicidal activity is given at values of at least 85) | good (A good herbicidal activity is given at values of at least 70) | very good (a very good herbicidal activity is given at values of at least 85) | very good (a very good herbicidal activity is given at values of at least 85) |  |
| OC(Cc1nc(C2CC2)ncc1-c1ncccc1Cl)c1ccccc1 (centres unmarked) [Ex.36] |  | very good (a very good herbicidal activity is given at values of at least 85) | very good (a very good herbicidal activity is given at values of at least 85) |  | herbicidal activity against SETVI (Setaria viridis; application rate 2000 g/ha): very good (a very good herbicidal activity is given at values of at least 85) |
| OC(Cc1nc(C2CC2)ncc1-c1ncccc1Cl)c1ccoc1 (centres unmarked) [Ex.38] |  | very good (a very good herbicidal activity is given at values of at least 85) |  | very good (a very good herbicidal activity is given at values of at least 85) |  |
| Clc1cccnc1-c1cnc(C2CC2)nc1C=Cc1ccoc1 [Ex.39] | very good (a very good herbicidal activity is given at values of at least 85) | very good (a very good herbicidal activity is given at values of at least 85) | good (A good herbicidal activity is given at values of at least 70) | very good (a very good herbicidal activity is given at values of at least 85) |  |
| Clc1cccnc1-c1cnc(C2CC2)nc1C=C1CCCCC1 [Ex.42] |  | good (A good herbicidal activity is given at values of at least 70) |  |  |  |
| CCC=Cc1nc(C2CC2)ncc1-c1ncccc1Cl [Ex.45] | good (A good herbicidal activity is given at values of at least 70) |  | good (A good herbicidal activity is given at values of at least 70) | very good (a very good herbicidal activity is given at values of at least 85) |  |
| OC(c1ccccc1)c1nc(C2CC2)ncc1-c1ccccn1 (centres unmarked) [Ex. 14] |  |  |  |  | herbicidal activity against SETVI (Setaria viridis; application rate 2000 g/ha): very good (a very good herbicidal activity is given at values of at least 85) |
